≈ marks a conversion by molar mass, not a printed value.
tested on: Aspergillus fumigatus; experiment: Antifungal activity against Aspergillus fumigatus 231 after 24 hrs by broth microdilution assay; assay type: functional; conditions: Aspergillus fumigatus, 231, 24 h

| Compound | MIC |
| --- | --- |
| COc1ccc(C(=S)NCc2cccc(Cl)c2)c(O)c1 | 62.5 µM (≈ 19.2 µg/mL) |
| Cc1ccc(C(=S)NCc2ccccc2)c(O)c1 | 62.5 µM (≈ 16.1 µg/mL) |
| Cc1cccc(CNC(=S)c2ccccc2O)c1 | 62.5 µM (≈ 16.1 µg/mL) |
| Cc1cccc(C(=S)NCc2ccc(Cl)cc2)c1O | 62.5 µM (≈ 18.2 µg/mL) |
| Cc1ccc(CNC(=S)c2ccccc2O)cc1 | 125 µM (≈ 32.2 µg/mL) |

tested on: Lichtheimia corymbifera; experiment: Antifungal activity against Absidia corymbifera 272 after 24 hrs by broth microdilution assay; assay type: functional; conditions: Lichtheimia corymbifera, 272, 24 h

| Compound | MIC |
| --- | --- |
| COc1ccc(C(=S)NCc2cccc(Cl)c2)c(O)c1 | 7.81 µM (≈ 2.4 µg/mL) |
| Cc1ccc(C(=S)NCc2ccccc2)c(O)c1 | 7.81 µM (≈ 2.01 µg/mL) |
| Cc1cccc(CNC(=S)c2ccccc2O)c1 | 62.5 µM (≈ 16.1 µg/mL) |
| Cc1cccc(C(=S)NCc2ccc(Cl)cc2)c1O | 31.2 µM (≈ 9.12 µg/mL) |
| Cc1ccc(CNC(=S)c2ccccc2O)cc1 | 15.6 µM (≈ 4.02 µg/mL) |

tested on: Trichosporon asahii; experiment: Antifungal activity against Trichosporon asahii 1188 after 48 hrs by broth microdilution assay; assay type: functional; conditions: Trichosporon asahii, 1188, 48 h

| Compound | MIC |
| --- | --- |
| COc1ccc(C(=S)NCc2cccc(Cl)c2)c(O)c1 | 62.5 µM (≈ 19.2 µg/mL) |
| Cc1ccc(C(=S)NCc2ccccc2)c(O)c1 | 62.5 µM (≈ 16.1 µg/mL) |
| Cc1cccc(CNC(=S)c2ccccc2O)c1 | 62.5 µM (≈ 16.1 µg/mL) |
| Cc1cccc(C(=S)NCc2ccc(Cl)cc2)c1O | 62.5 µM (≈ 18.2 µg/mL) |
| Cc1ccc(CNC(=S)c2ccccc2O)cc1 | 62.5 µM (≈ 16.1 µg/mL) |

tested on: Candida tropicalis; experiment: Antifungal activity against Candida tropicalis 159 after 24 hrs by broth microdilution assay; assay type: functional; conditions: Candida tropicalis, 159, 24 h

| Compound | MIC |
| --- | --- |
| COc1ccc(C(=S)NCc2cccc(Cl)c2)c(O)c1 | 125 µM (≈ 38.5 µg/mL) |
| Cc1ccc(C(=S)NCc2ccccc2)c(O)c1 | 125 µM (≈ 32.2 µg/mL) |
| Cc1cccc(CNC(=S)c2ccccc2O)c1 | 125 µM (≈ 32.2 µg/mL) |
| Cc1cccc(C(=S)NCc2ccc(Cl)cc2)c1O | 125 µM (≈ 36.5 µg/mL) |
| Cc1ccc(CNC(=S)c2ccccc2O)cc1 | 125 µM (≈ 32.2 µg/mL) |

tested on: Pichia kudriavzevii; experiment: Antifungal activity against Candida krusei E28 after 48 hrs by broth microdilution assay; assay type: functional; conditions: Pichia kudriavzevii, E28, 48 h

| Compound | MIC |
| --- | --- |
| COc1ccc(C(=S)NCc2cccc(Cl)c2)c(O)c1 | 125 µM (≈ 38.5 µg/mL) |
| Cc1ccc(C(=S)NCc2ccccc2)c(O)c1 | 125 µM (≈ 32.2 µg/mL) |
| Cc1cccc(CNC(=S)c2ccccc2O)c1 | 250 µM (≈ 64.3 µg/mL) |
| Cc1cccc(C(=S)NCc2ccc(Cl)cc2)c1O | > 500 µM |
| Cc1ccc(CNC(=S)c2ccccc2O)cc1 | 125 µM (≈ 32.2 µg/mL) |

tested on: Nakaseomyces glabratus; experiment: Antifungal activity against Candida glabrata 20/I after 24 hrs by broth microdilution assay; assay type: functional; conditions: Nakaseomyces glabratus, 20/I, 24 h

| Compound | MIC |
| --- | --- |
| COc1ccc(C(=S)NCc2cccc(Cl)c2)c(O)c1 | 250 µM (≈ 77 µg/mL) |
| Cc1ccc(C(=S)NCc2ccccc2)c(O)c1 | 125 µM (≈ 32.2 µg/mL) |
| Cc1cccc(CNC(=S)c2ccccc2O)c1 | 125 µM (≈ 32.2 µg/mL) |
| Cc1cccc(C(=S)NCc2ccc(Cl)cc2)c1O | > 500 µM |
| Cc1ccc(CNC(=S)c2ccccc2O)cc1 | 125 µM (≈ 32.2 µg/mL) |

tested on: Pichia kudriavzevii; experiment: Antifungal activity against Candida krusei E28 after 24 hrs by broth microdilution assay; assay type: functional; conditions: Pichia kudriavzevii, E28, 24 h

| Compound | MIC |
| --- | --- |
| COc1ccc(C(=S)NCc2cccc(Cl)c2)c(O)c1 | 125 µM (≈ 38.5 µg/mL) |
| Cc1ccc(C(=S)NCc2ccccc2)c(O)c1 | 62.5 µM (≈ 16.1 µg/mL) |
| Cc1cccc(CNC(=S)c2ccccc2O)c1 | 125 µM (≈ 32.2 µg/mL) |
| Cc1cccc(C(=S)NCc2ccc(Cl)cc2)c1O | > 500 µM |
| Cc1ccc(CNC(=S)c2ccccc2O)cc1 | 62.5 µM (≈ 16.1 µg/mL) |

tested on: Candida albicans; experiment: Antifungal activity against Candida albicans ATCC 44859 after 48 hrs by broth microdilution assay; assay type: functional; conditions: Candida albicans, ATCC 44859, 48 h

| Compound | MIC |
| --- | --- |
| COc1ccc(C(=S)NCc2cccc(Cl)c2)c(O)c1 | 250 µM (≈ 77 µg/mL) |
| Cc1ccc(C(=S)NCc2ccccc2)c(O)c1 | 125 µM (≈ 32.2 µg/mL) |
| Cc1cccc(CNC(=S)c2ccccc2O)c1 | 250 µM (≈ 64.3 µg/mL) |
| Cc1cccc(C(=S)NCc2ccc(Cl)cc2)c1O | 125 µM (≈ 36.5 µg/mL) |
| Cc1ccc(CNC(=S)c2ccccc2O)cc1 | 125 µM (≈ 32.2 µg/mL) |

tested on: Lichtheimia corymbifera; experiment: Antifungal activity against Absidia corymbifera 272 after 48 hrs by broth microdilution assay; assay type: functional; conditions: Lichtheimia corymbifera, 272, 48 h

| Compound | MIC |
| --- | --- |
| COc1ccc(C(=S)NCc2cccc(Cl)c2)c(O)c1 | 7.81 µM (≈ 2.4 µg/mL) |
| Cc1ccc(C(=S)NCc2ccccc2)c(O)c1 | 31.2 µM (≈ 8.04 µg/mL) |
| Cc1cccc(CNC(=S)c2ccccc2O)c1 | 15.6 µM (≈ 4.02 µg/mL) |
| Cc1cccc(C(=S)NCc2ccc(Cl)cc2)c1O | 31.2 µM (≈ 9.12 µg/mL) |
| Cc1ccc(CNC(=S)c2ccccc2O)cc1 | 31.2 µM (≈ 8.04 µg/mL) |

tested on: Trichosporon asahii; experiment: Antifungal activity against Trichosporon asahii 1188 after 24 hrs by broth microdilution assay; assay type: functional; conditions: Trichosporon asahii, 1188, 24 h

| Compound | MIC |
| --- | --- |
| COc1ccc(C(=S)NCc2cccc(Cl)c2)c(O)c1 | 31.2 µM (≈ 9.62 µg/mL) |
| Cc1ccc(C(=S)NCc2ccccc2)c(O)c1 | 62.5 µM (≈ 16.1 µg/mL) |
| Cc1cccc(CNC(=S)c2ccccc2O)c1 | 31.2 µM (≈ 8.04 µg/mL) |
| Cc1cccc(C(=S)NCc2ccc(Cl)cc2)c1O | 62.5 µM (≈ 18.2 µg/mL) |
| Cc1ccc(CNC(=S)c2ccccc2O)cc1 | 31.2 µM (≈ 8.04 µg/mL) |

tested on: Trichophyton mentagrophytes; experiment: Antifungal activity against Trichophyton mentagrophytes 445 after 72 hrs by broth microdilution assay; assay type: functional; conditions: Trichophyton mentagrophytes, 445, 72 h

| Compound | MIC |
| --- | --- |
| COc1ccc(C(=S)NCc2cccc(Cl)c2)c(O)c1 | 15.6 µM (≈ 4.81 µg/mL) |
| Cc1ccc(C(=S)NCc2ccccc2)c(O)c1 | 31.2 µM (≈ 8.04 µg/mL) |
| Cc1cccc(CNC(=S)c2ccccc2O)c1 | 15.6 µM (≈ 4.02 µg/mL) |
| Cc1cccc(C(=S)NCc2ccc(Cl)cc2)c1O | 15.6 µM (≈ 4.56 µg/mL) |
| Cc1ccc(CNC(=S)c2ccccc2O)cc1 | 31.2 µM (≈ 8.04 µg/mL) |

tested on: Candida albicans; experiment: Antifungal activity against Candida albicans ATCC 44859 after 24 hrs by broth microdilution assay; assay type: functional; conditions: Candida albicans, ATCC 44859, 24 h

| Compound | MIC |
| --- | --- |
| COc1ccc(C(=S)NCc2cccc(Cl)c2)c(O)c1 | 125 µM (≈ 38.5 µg/mL) |
| Cc1ccc(C(=S)NCc2ccccc2)c(O)c1 | 62.5 µM (≈ 16.1 µg/mL) |
| Cc1cccc(CNC(=S)c2ccccc2O)c1 | 125 µM (≈ 32.2 µg/mL) |
| Cc1cccc(C(=S)NCc2ccc(Cl)cc2)c1O | 62.5 µM (≈ 18.2 µg/mL) |
| Cc1ccc(CNC(=S)c2ccccc2O)cc1 | 62.5 µM (≈ 16.1 µg/mL) |

tested on: Aspergillus fumigatus; experiment: Antifungal activity against Aspergillus fumigatus 231 after 48 hrs by broth microdilution assay; assay type: functional; conditions: Aspergillus fumigatus, 231, 48 h

| Compound | MIC |
| --- | --- |
| COc1ccc(C(=S)NCc2cccc(Cl)c2)c(O)c1 | 125 µM (≈ 38.5 µg/mL) |
| Cc1ccc(C(=S)NCc2ccccc2)c(O)c1 | 125 µM (≈ 32.2 µg/mL) |
| Cc1cccc(CNC(=S)c2ccccc2O)c1 | 62.5 µM (≈ 16.1 µg/mL) |
| Cc1cccc(C(=S)NCc2ccc(Cl)cc2)c1O | 125 µM (≈ 36.5 µg/mL) |
| Cc1ccc(CNC(=S)c2ccccc2O)cc1 | 250 µM (≈ 64.3 µg/mL) |

tested on: Nakaseomyces glabratus; experiment: Antifungal activity against Candida glabrata 20/I after 48 hrs by broth microdilution assay; assay type: functional; conditions: Nakaseomyces glabratus, 20/I, 48 h

| Compound | MIC |
| --- | --- |
| COc1ccc(C(=S)NCc2cccc(Cl)c2)c(O)c1 | 500 µM (≈ 154 µg/mL) |
| Cc1ccc(C(=S)NCc2ccccc2)c(O)c1 | 250 µM (≈ 64.3 µg/mL) |
| Cc1cccc(CNC(=S)c2ccccc2O)c1 | 250 µM (≈ 64.3 µg/mL) |
| Cc1cccc(C(=S)NCc2ccc(Cl)cc2)c1O | > 500 µM |
| Cc1ccc(CNC(=S)c2ccccc2O)cc1 | 125 µM (≈ 32.2 µg/mL) |

tested on: Trichophyton mentagrophytes; experiment: Antifungal activity against Trichophyton mentagrophytes 445 after 120 hrs by broth microdilution assay; assay type: functional; conditions: Trichophyton mentagrophytes, 445, 120 h

| Compound | MIC |
| --- | --- |
| COc1ccc(C(=S)NCc2cccc(Cl)c2)c(O)c1 | 15.6 µM (≈ 4.81 µg/mL) |
| Cc1ccc(C(=S)NCc2ccccc2)c(O)c1 | 31.2 µM (≈ 8.04 µg/mL) |
| Cc1cccc(CNC(=S)c2ccccc2O)c1 | 15.6 µM (≈ 4.02 µg/mL) |
| Cc1cccc(C(=S)NCc2ccc(Cl)cc2)c1O | 15.6 µM (≈ 4.56 µg/mL) |
| Cc1ccc(CNC(=S)c2ccccc2O)cc1 | 15.6 µM (≈ 4.02 µg/mL) |

tested on: Candida tropicalis; experiment: Antifungal activity against Candida tropicalis 159 after 48 hrs by broth microdilution assay; assay type: functional; conditions: Candida tropicalis, 159, 48 h

| Compound | MIC |
| --- | --- |
| COc1ccc(C(=S)NCc2cccc(Cl)c2)c(O)c1 | 250 µM (≈ 77 µg/mL) |
| Cc1ccc(C(=S)NCc2ccccc2)c(O)c1 | 250 µM (≈ 64.3 µg/mL) |
| Cc1cccc(CNC(=S)c2ccccc2O)c1 | 250 µM (≈ 64.3 µg/mL) |
| Cc1cccc(C(=S)NCc2ccc(Cl)cc2)c1O | 250 µM (≈ 73 µg/mL) |
| Cc1ccc(CNC(=S)c2ccccc2O)cc1 | 125 µM (≈ 32.2 µg/mL) |

Source: ChEMBL document CHEMBL1208720, “N-Benzylsalicylthioamides as novel compounds with promising antimycotic activity” (2010)
